Some test systems named below: SNB-75; Hs-578T; KM12; IGROV-1; MDA-N; DU-145; M14; T47D; 786-0; SR; MDA-MB-231; LOX IMVI; MCF7; ACHN; SK-OV-3; OVCAR-4; OVCAR-5; A549; UACC-62; NCI-H23.
Assay in all cases: NCI tumour cell line growth inhibition, 48 h

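Values below derive from 48-hour exposures of cells grown in 96-well plates, with endpoints linearly interpolated between the two concentrations bracketing the appropriate inhibition level. GI50 = concentration required for 50% inhibition of growth.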 The source made the active and inactive calls. No stated cut-off is given here; in the data, active = GI50 up to about 1.1 µM and inactive = higher.

On to `COc1cccc(C2c3cc4c(cc3OC(C)(N3CCCC3)C2C)OCO4)c1O` (stereo not given), for which the GI50 in the assay on SNB-75 is 2.3 µM (inactive); in the assay with Hs-578T, 2 µM (inactive); in the assay on KM12, 3.14 µM (inactive); in the assay on IGROV-1 it was 6.01 µM (inactive); in the assay on MDA-N it was 1.93 µM (inactive); in the assay with DU-145 it was 3.52 µM (inactive). The GI50 in the assay with M14 was 3.08 µM (inactive); in the assay on T47D it was 12.1 µM (inactive); with 786-0, 4.71 µM (inactive); in the assay with SR, 2.06 µM (inactive); in the assay with MDA-MB-231 it was 3.01 µM (inactive); with LOX IMVI, 4.82 µM (inactive). In addition, the GI50 was 3.47 µM (inactive) in the assay on MCF7; 11.3 µM (inactive) in the assay on ACHN; 3.44 µM (inactive) in the assay on SK-OV-3; 13.3 µM (inactive) in the assay on OVCAR-4; 8.36 µM (inactive) with OVCAR-5; 6.7 µM (inactive) in the assay on A549. Further, the GI50 with UACC-62 is 4.6 µM (inactive); in the assay on NCI-H23, 3.05 µM (inactive).

As to `CCCC(=O)Nc1cc(/C=C/C(=O)N2CC(CCl)c3ccc(N)cc32)n(C)c1` (stereo not given), the GI50 is 0.388 µM (active) with SNB-75; 0.277 µM (active) with Hs-578T; 0.257 µM (active) with KM12; 0.229 µM (active) in the assay on IGROV-1; 0.219 µM (active) in the assay on MDA-N; 0.0361 µM (active) in the assay with DU-145. In addition, the GI50 in the assay on M14 is 0.337 µM (active); in the assay with T47D, 0.158 µM (active); in the assay on 786-0, 0.107 µM (active); in the assay with SR it was 0.0242 µM (active); in the assay on MDA-MB-231 it was 0.275 µM (active); in the assay on LOX IMVI it was 0.148 µM (active). The GI50 with MCF7 is 0.122 µM (active); in the assay on ACHN it was 0.0248 µM (active); in the assay with SK-OV-3 it was 0.47 µM (active); in the assay on OVCAR-4 it was 0.188 µM (active); with OVCAR-5 it was 0.375 µM (active); with A549, 0.0294 µM (active). The values for the GI50 in the assay with UACC-62 and with NCI-H23 were 0.092 µM (active) and 0.145 µM (active), respectively.

Consider `CC(=O)O[C@H]1C(=O)N(c2cc3c4ccccc4ccc3c3ccccc23)[C@@H]1c1ccccc1`, for which the GI50 with SNB-75 was 2 µM (inactive); in the assay on Hs-578T it was 5.16 µM (inactive); in the assay with KM12 it was 2.9 µM (inactive); with IGROV-1, 2.11 µM (inactive); in the assay on MDA-N, 3.86 µM (inactive); in the assay on DU-145, 14.5 µM (inactive). Also, the GI50 is 4.38 µM (inactive) in the assay on M14; 6.01 µM (inactive) with T47D; 3.79 µM (inactive) in the assay on 786-0; 1.6 µM (inactive) in the assay on SR; 10.9 µM (inactive) with MDA-MB-231; 4.34 µM (inactive) in the assay on LOX IMVI. For the same compound, the GI50 in the assay on MCF7 is 3.13 µM (inactive); in the assay on ACHN, 6.38 µM (inactive); with SK-OV-3, 4.74 µM (inactive); in the assay with OVCAR-4, 4.66 µM (inactive); in the assay with OVCAR-5 it was 15.7 µM (inactive); in the assay with A549, 4.56 µM (inactive). The GI50 in the assay with UACC-62 was 3.15 µM (inactive); with NCI-H23, 5.51 µM (inactive).

In the case of `COc1ccc(C2NC(=S)Nc3c2c(=O)oc2c3ccc3ccccc32)cc1` (stereo not given), the GI50 was 33.7 µM (inactive) in the assay on SNB-75; 75.7 µM (inactive) in the assay on Hs-578T; 58.3 µM (inactive) in the assay with KM12; > 100 µM (inactive) with IGROV-1; 76.9 µM (inactive) in the assay with MDA-N; > 100 µM (inactive) with DU-145. Also, the GI50 with M14 is 45.6 µM (inactive); in the assay on T47D, 50.6 µM (inactive); with 786-0 it was 80.7 µM (inactive); in the assay with SR, 48.4 µM (inactive); with MDA-MB-231 it was 57.8 µM (inactive); in the assay with LOX IMVI, > 100 µM (inactive). Besides, the GI50 in the assay on MCF7 is > 100 µM (inactive); with ACHN, 67.6 µM (inactive); in the assay with SK-OV-3 it was > 100 µM (inactive); with OVCAR-4, 69.2 µM (inactive); in the assay on OVCAR-5, > 100 µM (inactive); in the assay on A549, 52.1 µM (inactive). Moreover, the GI50 with UACC-62 was 45.7 µM (inactive); in the assay with NCI-H23, 67.3 µM (inactive).

Take `COC(=O)[C@@]12CC[C@]1(C(=O)OC)C1C(C)=CC(=O)O[C@@]12C` (stereo not given in full): the GI50 in the assay on SNB-75, in the assay on Hs-578T, in the assay with KM12, in the assay with IGROV-1, in the assay on MDA-N and with DU-145 was > 100 µM (inactive) throughout. Further, the GI50 in the assay on M14, in the assay with T47D, in the assay with 786-0, with SR, with MDA-MB-231 and with LOX IMVI was > 100 µM (inactive) throughout. Besides, the GI50 in the assay with MCF7, in the assay with ACHN, with SK-OV-3, in the assay with OVCAR-4, with OVCAR-5 and in the assay with A549 was > 100 µM (inactive) throughout. For the same compound, the GI50 in the assay on UACC-62 and with NCI-H23 was > 100 µM (inactive) throughout.

Consider `CC1(C)CCCC2(C)C3=C(CCC12)C(=O)OC3` (stereo not given), for which the GI50 in the assay with SNB-75 was > 100 µM (inactive); in the assay with Hs-578T, 97.9 µM (inactive); with KM12, > 100 µM (inactive); with IGROV-1, > 100 µM (inactive); in the assay with MDA-N, > 100 µM (inactive); with DU-145, > 100 µM (inactive). Moreover, the GI50 in the assay on M14 was > 100 µM (inactive); in the assay on T47D, 59.2 µM (inactive); in the assay with 786-0, > 100 µM (inactive); in the assay with SR, 39.4 µM (inactive); in the assay with MDA-MB-231 it was > 100 µM (inactive); with LOX IMVI, > 100 µM (inactive). The GI50 in the assay with MCF7 is > 100 µM (inactive); with ACHN it was > 100 µM (inactive); with SK-OV-3 it was > 100 µM (inactive); in the assay with OVCAR-4, 55.7 µM (inactive); with OVCAR-5, > 100 µM (inactive); in the assay on A549 it was > 100 µM (inactive). Moreover, the GI50 in the assay on UACC-62 is 93.5 µM (inactive); with NCI-H23, > 100 µM (inactive).

As for `COc1ccc2cc(CNCCCN3CCN(CCCNCc4ccc5cc(OC)ccc5c4)CC3)ccc2c1`, the GI50 is 1.62 µM (inactive) in the assay on SNB-75; 1.52 µM (inactive) in the assay with Hs-578T; 0.789 µM (active) with KM12; 1.72 µM (inactive) with IGROV-1; 1.44 µM (inactive) in the assay on MDA-N; 1.54 µM (inactive) with DU-145. Also, the GI50 was 1.6 µM (inactive) in the assay on M14; 1.32 µM (inactive) in the assay on T47D; 1.55 µM (inactive) in the assay with 786-0; 0.333 µM (active) in the assay on SR; 1.9 µM (inactive) in the assay with MDA-MB-231; 0.55 µM (active) with LOX IMVI. Besides, the GI50 in the assay on MCF7 was 1.35 µM (inactive); with ACHN, 1.8 µM (inactive); with SK-OV-3 it was 1.42 µM (inactive); with OVCAR-4, 1.96 µM (inactive); with OVCAR-5 it was 1.17 µM (inactive); in the assay on A549, 1.83 µM (inactive). The values for the GI50 with UACC-62 and in the assay with NCI-H23 were 0.569 µM (active) and 1.91 µM (inactive), respectively.

For the origin of these results see ChEMBL document CHEMBL1201862, “PubChem BioAssay data set” (2004).
